Measured values: patent US11427567B2, “Imidazolyl pyrimidinylamine compounds as CDK2 inhibitors” (Incyte Corporation, priority 2019, dated 2022)

Target: CDK2/Cyclin E1 (Homo sapiens (Human), UniProt P24941)
Test: CDK2/Cyclin E1 HTRF enzyme activity assay (Example A)
Format: biochemical
Details: 1 mM ATP
Procedure: Assays were conducted in white 384-well polystyrene plates in a final reaction volume of 8 μL. […] HTRF signals were read after 1 hour at room temperature on a PHERAstar FS plate reader (BMG Labtech). Data was analyzed with IDBS XLFit and GraphPad Prism 5.0 software using a three or four parameter dose response curve to determine IC50 for each compound.

IC50, ≤ 50 nM:
Cn1cc(S(=O)(=O)N2CCC(Nc3ncc(C(F)(F)F)c(-c4cn(CC(F)F)cn4)n3)CC2)cn1 [Example 334, 4-(1-(2,2-Difluoroethyl)-1H-imidazol-4-yl)-N-(1-((1-methyl-1H-pyrazol-4-yl)sulfonyl)piperidin-4-yl)-5-(trifluoromethyl)pyrimidin-2-amine]
CN(C)C(=O)c1ccc(-n2cnc(-c3nc(NC4CCN(S(C)(=O)=O)CC4)ncc3C(F)(F)F)c2)c(Cl)c1 [Example 135, 3-Chloro-N,N-dimethyl-4-(4-(2-((1-(methylsulfonyl)piperidin-4-yl)amino)-5-(trifluoromethyl)pyrimidin-4-yl)-1H-imidazol-1-yl)benzamide]
CCNCc1cc(F)c(-n2cnc(-c3nc(NC4CCN(S(C)(=O)=O)CC4)ncc3C(F)(F)F)c2)c(Cl)c1 [Example 393, 4-(1-(2-Chloro-4-((ethylamino)methyl)-6-fluorophenyl)-1H-imdazol-4-yl)-N-(1-(methylsulfonyl)piperidin-4-yl)-5-(trifluoromethyl)pyrimidin-2-amine]
CCN(CC)Cc1ccc(-n2cc(-c3nc(NC4CCN(S(C)(=O)=O)CC4)ncc3C(F)(F)F)nc2C)c(F)c1 [Example 357, 4-(1-(4-((Diethylamino)methyl)-2-fluorophenyl)-2-methyl-1H-imidazol-4-yl)-N-(1-(methylsulfonyl)piperidin-4-yl)-5-(trifluoromethyl)pyrimidin-2-amine]
CCN1CCN(Cc2ccc(-n3cnc(-c4nc(NC5CCN(S(C)(=O)=O)CC5)ncc4C(F)(F)F)c3)c(C#N)c2)CC1 [Example 339, 5-((4-Ethylpiperazin-1-yl)methyl)-2-(4-(2-((1-(methylsulfonyl)piperidin-4-yl)amino)-5-(trifluoromethyl)pyrimidin-4-yl)-1H-imidazol-1-yl)benzonitrile]
CS(=O)(=O)N1CCC(Nc2ncc(C(F)(F)F)c(-c3cn(-c4ccc(CN5CCCC5=O)cc4Cl)cn3)n2)CC1 [Example 454, 1-(3-Chloro-4-(4-(2-((1-(methylsulfonyl)piperidin-4-yl)amino)-5-(trifluoromethyl)pyrimidin-4-yl)-1H-imidazol-1-yl)benzyl)pyrrolidin-2-one]
CC1(O)CCN(Cc2ccc(-n3cnc(-c4nc(NC5CCN(S(C)(=O)=O)CC5)ncc4C(F)(F)F)c3)c(C(F)(F)F)c2)CC1 [Example 262, 4-Methyl-1-(4-(4-(2-((1-(methylsulfonyl)piperidin-4-yl)amino)-5-(trifluoromethyl)pyrimidin-4-yl)-1H-imidazol-1-yl)-3-(trifluoromethyl)benzyl) piperidin-4-ol]
COC1CN(Cc2ccc(-n3cc(-c4nc(NC5CCN(S(C)(=O)=O)CC5)ncc4C(F)(F)F)nc3C)c(F)c2)C1 [Example 353, 4-(1-(2-Fluoro-4-((3-methoxyazetidin-1-yl)methyl)phenyl)-2-methyl-1H-imidazol-4-yl)-N-(1-(methylsulfonyl)piperidin-4-yl)-5-(trifluoromethyl)pyrimidin-2-amine]
CS(=O)(=O)N1CCC(Nc2ncc(C(F)(F)F)c(-c3cn(-c4ccc(CN5CC[C@H](O)C5)cc4C(F)(F)F)cn3)n2)CC1 [Example 260, (S)-1-(4-(4-(2-((1-(Methylsulfonyl)piperidin-4-yl)amino)-5-(trifluoromethyl)pyrimidin-4-yl)-1H-imidazol-1-yl)-(trifluoromethyl)benzyl) pyrrolidin-3-ol]
CS(=O)(=O)N1CCC(Nc2ncc(C(F)(F)F)c(-c3cn(-c4cccc(C#N)c4C(F)(F)F)cn3)n2)CC1 [Example 38, 3-(4-(2-((1-(Methylsulfonyl)piperidin-4-yl)amino)-5-(trifluoromethyl)pyrimidin-4-yl)-1H-imidazol-1-yl)-2-(trifluoromethyl)benzonitrile]
CS(=O)(=O)N1CCC(Nc2ncc(C(F)(F)F)c(-c3cn(-c4ccc(OCCN5CCCC5)cc4C#N)cn3)n2)CC1 [Example 437, 2-(4-(2-((1-(Methylsulfonyl)piperidin-4-yl)amino)-5-(trifluoromethyl)pyrimidin-4-yl)-1H-imidazol-1-yl)-5-(2-(pyrrolidin-1-yl)ethoxy)benzonitrile]
CC(C)(O)Cn1cnc(-c2nc(N[C@H]3CCN(S(=O)(=O)C4CC4)C[C@H]3F)ncc2C(F)(F)F)c1 [Example 323, 1-(4-(2-(((3R,4S)-1-(Cyclopropylsulfonyl)-3-fluoropiperidin-4-yl)amino)-5-(trifluoromethyl)pyrimidin-4-yl)-1H-imidazol-1-yl)-2-methylpropan-2-ol]
CS(=O)(=O)N1CC[C@H](Nc2ncc(C(F)(F)F)c(-c3cn(-c4cccc(C#N)c4C(F)(F)F)cn3)n2)[C@H](F)C1 [Example 69, 3-(4-(2-(((3R,4S)-3-Fluoro-1-(methylsulfonyl)piperidin-4-yl)amino)-5-(trifluoromethyl)pyrimidin-4-yl)-1H-imidazol-1-yl)-2-(trifluoromethyl)benzonitrile]
CN(C)CCOc1ccc(-n2cnc(-c3nc(NC4CCN(S(C)(=O)=O)CC4)ncc3C(F)(F)F)c2)c(C#N)n1 [Example 40, 6-(2-(Dimethylamino)ethoxy)-3-(4-(2-((1-(methylsulfonyl)piperidin-4-yl)amino)-5-(trifluoromethyl)pyrimidin-4-yl)-1H-imidazol-1-yl)picolinonitrile]
Cc1nc(-c2nc(NC3CCN(S(C)(=O)=O)CC3)ncc2C(F)(F)F)cn1-c1ccc(C2CN(CC3(O)CC3)C2)cc1F [Example 422, 1-((3-(3-Fluoro-4-(2-methyl-4-(2-((1-(methylsulfonyl)piperidin-4-yl)amino)-5-(trifluoromethyl)pyrimidin-4-yl)-1H-imidazol-1-yl)phenyl)azetidin-1-yl)methyl)cyclopropan-1-ol]
CNCc1cccc(-n2cnc(-c3nc(NC4CCN(S(C)(=O)=O)CC4)ncc3C(F)(F)F)c2)c1C(F)(F)F [Example 378, 4-(1-(3-((Methylamino)methyl)-2-(trifluoromethyl)phenyl)-1H-imidazol-4-yl)-N-(1-(methylsulfonyl)piperidin-4-yl)-5-(trifluoromethyl)pyrimidin-2-amine]
CS(=O)(=O)N1CCC(Nc2ncc(C(F)(F)F)c(-c3cn(-c4cccc(CN5CC(O)C5)c4Cl)cn3)n2)CC1 [Example 82, 1-(2-Chloro-3-(4-(2-((1-(methylsulfonyl)piperidin-4-yl)amino)-5-(trifluoromethyl)pyrimidin-4-yl)-1H-imidazol-1-yl)benzyl)azetidin-3-ol]
CNC(C)c1cccc(-n2cnc(-c3nc(NC4CCN(S(C)(=O)=O)CC4)ncc3C(F)(F)F)c2)c1Cl (stereo not shown) [Example 377, 4-(1-(2-Chloro-3-(1-(methylamino)ethyl)phe-nyl)-1H-imidazol-4-yl)-N-(1-(methylsulfonyl)piperidin-4-yl)-5-(trifluoromethyl)pyrimi-din-2-amine]
CC(C)(O)CCOc1ccc(-n2cnc(-c3nc(NC4CCN(S(C)(=O)=O)CC4)ncc3C(F)(F)F)c2)c(C(F)(F)F)n1 [Example 71, 2-Methyl-4-((5-(4-(2-((1-(methylsulfonyl)piperidin-4-yl)amino)-5-(trifluoromethyl)pyrimidin-4-yl)-1H-imidazol-1-yl)-6-(trifluoromethyl)pyridin-2-yl)oxy)butan-2-ol]
Cc1nc(-c2nc(NC3CCN(S(C)(=O)=O)CC3)ncc2C(F)(F)F)cn1-c1ccc(N2CCC(N3CCCC3)CC2)cc1F [Example 114, 4-(1-(2-Fluoro-4-(4-(pyrrolidin-1-yl)piperidin-1-yl)-phenyl)-2-methyl-1H-imidazol-4-yl)-N-(1-(methyl-sulfonyl)piperidin-4-yl)-5-(trifluoro-methyl)pyrimidin-2-amine]
CS(=O)(=O)N1CCC(Nc2ncc(C(F)(F)F)c(-c3cn(-c4ccc(Cn5ccnn5)cc4Cl)cn3)n2)CC1 [Example 242, 4-(1-(4-((1H-1,2,3-Triazol-1-yl)methyl)-2-chlorophenyl)-1H-imidazol-4-yl)-N-(1-(methylsulfonyl)piperidin-4-yl)-5-(trifluoromethyl)pyrimidin-2-amine]
CC1CN(Cc2ccc(-n3cnc(-c4nc(NC5CCN(S(C)(=O)=O)CC5)ncc4C(F)(F)F)c3)c(Cl)c2)C1 [Example 177, 4-(1-(2-Chloro-4-((3-methylazetidin-1-yl)methyl)phenyl)-1H-imidazol-4-yl)-N-(1-(methylsulfonyl)piperidin-4-yl)-5-(trifluoromethyl)pyrimidin-2-amine]
CC(c1ccc(-n2cnc(-c3nc(NC4CCN(S(C)(=O)=O)CC4)ncc3C(F)(F)F)c2)c(Cl)c1)N1CCC1 (stereo not shown) [Example 274, 4-(1-(4-(1-(Azetidin-1-yl)ethyl)-2-chlorophenyl)-1H-imidazol-4-yl)-N-(1-(methylsulfonyl)piperidin-4-yl)-5-(trifluoromethyl)pyrimidin-2-amine]
Cc1cc(CN(C)C)ccc1-n1cnc(-c2nc(NC3CCN(S(C)(=O)=O)CC3)ncc2C(F)(F)F)c1 [Example 271, 4-(1-(4-((Dimethylamino)methyl)-2-methylphenyl)-1H-imidazol-4-yl)-N-(1-(methylsulfonyl)piperidin-4-yl)-5-(trifluoromethyl)pyrimidin-2-amine]
Cc1nc(-c2nc(NC3CCN(S(C)(=O)=O)CC3)ncc2C(F)(F)F)cn1-c1ccc(C#N)cc1F [Example 303, 3-Fluoro-4-(2-methyl-4-(2-((1-(methylsulfonyl)piperidin-4-yl)amino)-5-(trifluoromethyl)pyrimidin-4-yl)-1H-imidazol-1-yl)benzonitrile]
